Laboratory results taken from patent US20090124656A1, “Heterocyclic Oxime Compounds a Process for Their Preparation and Pharmaceutical Compositions Containing Them” (LES LABORATOIRES SERVIER, priority 2005, published 2009).

Tested on: ob/ob mouse
Assay: Antidiabetic and hypolipaemic effect in the ob/ob mouse
Assay type: in vivo
Conditions: dose of 3 mg/kg for 4 days
Description: Mutations in laboratory animals and also different sensitivities to dietary regimens have allowed the development of animal models having non-insulin-dependent diabetes and hyperlipidaemia associated with obesity and with resistance to insulin.
Genetic mice models (ob/ob) (Diabetes, 1982, 31 (1), 1-6) and Zucker (fa/fa) rats have been developed by various laboratories in order to understand the physiopathology of those diseases and test the effectiveness of new antidiabetic compounds (Diabetes, 1983, 32, 830-838).
Antidiabetic and Hypolipaemic Effect in the ob/ob Mouse
The 10-week-old female ob/ob mouse (Harlan) is used for the in vivo tests. The animals are kept in a light-darkness cycle of 12 hours at 25° C. The mouse has a basal hyperglycaemia of 2 g/l. The animals are randomly selected with regard to their glycaemia to form groups of six. […] […] The control groups receive the solvents under the same conditions as the treated groups.
The activity of the products is evaluated by measuring glycaemia 24 hours after the final administration and by measuring body weight daily.

CCOC(Cc1ccc(OCCN2CCC(C)(C)c3cc(C(=O)C4CCCCC4)ccc32)cc1)C(=O)O (stereo not drawn) [3-{4-[2-(6-(Cyclohexylcarbonyl)-4,4-dimethyl-3,4-dihydro-1(2H)-quinolinyl)ethoxy]phenyl}-2-ethoxypropanoic acid]
reduction in glycaemia: 32% | reduction in insulinaemia: 56% | reduction in triglyceridaemia: 57%
